Patent US5015631A, “Repairing agent for cells and tissues” (MECT Corporation, priority 1987, dated 1991)

System: mice
Test: Simple acute toxicity test by intravenous injection in mice
Type: in vivo, Male ddy mice
Conditions: 3 mice
Protocol: Simple acute toxicity test:
Simple acute toxicity tests of the materials were conducted by intraveous injections for the mice as follows:
Lithium, potassium, barium and magnesium N-acetylneuraminates (products of MECT Corporation) were used.
Weight of the animal in the initial stage of the test: 17.7 to 21.1 g
Number of mice for each level: 3
(3) Room temperature: 23±1° C., humidity: 55±7%
(4) Route of administration: intravenous injection
The material was dissolved in the physiological saline. The concentration of the dose solution was adjusted so that 0.2 ml of the dose solution was administered per 20 g of the body weight of the mice. The solution was given to a tail of each mouse by the intravenous injection. The dose was 500, 1000 or 2000 mg/kg.
The general symptoms and death were observed from immediately after the administration to seven days after the administration.

| Structure (SMILES) | Final death rate (500 mg/kg i.v.) | Number of death with the elapse of time (500 mg/kg i.v., 1 hr) | Number of death with the elapse of time (500 mg/kg i.v., 3 hrs) | Number of death with the elapse of time (500 mg/kg i.v., 6 hrs) | Number of death with the elapse of time (500 mg/kg i.v., 24 hrs) | Number of death with the elapse of time (500 mg/kg i.v., 2 days) | Number of death with the elapse of time (500 mg/kg i.v., 3 days) | Number of death with the elapse of time (500 mg/kg i.v., 4 days) | Number of death with the elapse of time (500 mg/kg i.v., 5 days) | Number of death with the elapse of time (500 mg/kg i.v., 6 days) | Number of death with the elapse of time (500 mg/kg i.v., 7 days) | also measured |
| --- | --- | --- | --- | --- | --- | --- | --- | --- | --- | --- | --- | --- |
| CC(=O)N[C@H]1[C@H]([C@H](O)[C@H](O)CO)OC(O)(C(=O)O)C[C@@H]1O (stereo partly drawn) [Magnesium N-acetylneuraminate] | 0/3 | 0 | 0 | 0 | 0 | 0 | 0 | 0 | 0 | 0 | 0 | – |
| CC(=O)N[C@H]1[C@H]([C@H](O)[C@H](O)CO)OC(O)(C(=O)O)C[C@@H]1O (stereo partly drawn) [Barium N-acetylneuraminate] | 3/3 | 3 | 0 | 0 | 0 | 0 | 0 | 0 | 0 | 0 | 0 | Number of death with the elapse of time (1000 mg/kg i.v., 1 hr): 3; Number of death with the elapse of time (1000 mg/kg i.v., 3 hrs): 0; Number of death with the elapse of time (1000 mg/kg i.v., 6 hrs): 0; Number of death with the elapse of time (1000 mg/kg i.v., 24 hrs): 0; Number of death with the elapse of time (1000 mg/kg i.v., 2 days): 0; Number of death with the elapse of time (1000 mg/kg i.v., 3 days): 0; Number of death with the elapse of time (1000 mg/kg i.v., 4 days): 0; Number of death with the elapse of time (1000 mg/kg i.v., 5 days): 0; Number of death with the elapse of time (1000 mg/kg i.v., 6 days): 0; Number of death with the elapse of time (1000 mg/kg i.v., 7 days): 0; Number of death with the elapse of time (2000 mg/kg i.v., 1 hr): 3; Number of death with the elapse of time (2000 mg/kg i.v., 3 hrs): 0; Number of death with the elapse of time (2000 mg/kg i.v., 6 hrs): 0; Number of death with the elapse of time (2000 mg/kg i.v., 24 hrs): 0; Number of death with the elapse of time (2000 mg/kg i.v., 2 days): 0; Number of death with the elapse of time (2000 mg/kg i.v., 3 days): 0; Number of death with the elapse of time (2000 mg/kg i.v., 4 days): 0; Number of death with the elapse of time (2000 mg/kg i.v., 5 days): 0; Number of death with the elapse of time (2000 mg/kg i.v., 6 days): 0; Number of death with the elapse of time (2000 mg/kg i.v., 7 days): 0 |
